Laboratory results from patent publication USRE50282E1, “Specific modification of antibody with IgG-binding peptide” (KAGOSHIMA UNIVERSITY, priority 2015, dated 2025).
Each block holds one compound with its values, some of them ahead of it. *1 amine or outer side, *2 acyl side, *3 side chain or, on linkers, in order; H or OH if unused. Where a SMILES comes first, the peptide text is derived from it. Bridges are numbered along the chain shown (N, C = ends). Where no end group is shown, it is not given here. [ ]: non-standard residue; d: D form. The star is where a group is joined. DSS = disuccinimidyl suberate, reactive NHS group, O=C(CCCCCCC(=O)*)ON1C(=O)CCC1=O; Dolaproine = CO[C@@H]([C@@H]1CCCN1)[C@@H](C)C(=O)O; Hexanoyl(6-maleimido) = O=C1C=CC(=O)N1CCCCCC(=O)*; Biotin = O=C1N[C@H]2[C@H](CS[C@H]2CCCCC(=O)*)N1; Dil = CC[C@H](C)[C@H](NC)[C@@H](CC(=O)O)OC; PABC = O=C(OCc1ccc(N[*:1])cc1)[*:2]; X1 = C[C@@H](N*)[C@@H](O)c1ccccc1; PEG5 = NCCOCCOCCOCCOCCOCCC(=O)O; Cit = NC(=O)NCCC[C@H](N)C(=O)O; NMeV = CN[C@H](C(=O)O)C(C)C

Tests used:
human IgG [1] = target: T1, human IgG (Homo sapiens, UniProt P01857); type: binding; settings: SPR; peptides N-terminally blocked with biotinylated PEG4; NHS group hydrolysed
SK-BR3 cells [2] = assay: Cell growth inhibition, Cell Counting Kit-8, 72 hours (Examples 11 and 12); type: cell-based; settings: 0 to 500 nM
human IgG Fc = target: T2, human IgG Fc (Homo sapiens, UniProt P01857); assay: Cross-linking reaction with Fc analyzed by ion-exchange chromatography (Examples 6 and 7); type: biochemical; settings: for unreacted form (peak 2) produced: 15 minutes
T2 construct: human IgG (Chugai Pharmaceutical Co., Ltd.) Fc solution; purchased Chugai Pharmaceutical Co., Ltd
Experimental: The reaction was terminated by the addition of 10 μL of 1 M Tris-HCl (pH 7.0). 50 μL of the reaction product was injected to NGC Chromatography system (Bio-Rad Laboratories, Inc.) connected with Shodex IEC SP-825 column, followed by gradient elution from a 25 mM acetate buffer (pH 4.5) to a 25 mM acetate buffer (pH 4.5) containing 1 M NaCl. The protein elution was monitored on the basis of absorbance at 215 nm. Each obtained peak was separated and subjected to molecular weight measurement by LC/MS.
20 μL of the obtained fraction of the peak was injected to Shimadzu LCMS-8030 connected with Waters ACQUITY UPLC BEH C8 (1.7 μm, 2.1 mm×100 mm) column, followed by gradient elution from 4% acetonitrile containing 0.1% formic acid to 60% acetonitrile containing 0.1% formic acid. The eluted peaks were subjected to mass spectrometry, and the masses were calculated by deconvolution from polyvalent ion peaks using analytical software.
1.0 μL (molar ratio: 1.0) of the DSG-modified IgG-binding peptide (4 mM) dissolved in DMF, prepared in Example 5 was added to 200 μL of a human IgG Fc solution prepared at pH 4.0 (25 mM acetate buffer solution), pH 5.5 (25 mM acetate buffer solution), or pH 7.0 (PBS), and the mixture was rapidly stirred and then reacted at room temperature. 1, 5, 10, or 30 minutes after the start of the reaction, the reaction was terminated by the addition of 10 μL of 1 M Tris-HCl (pH 7.0). 50 μL of the reaction product was injected to NGC Chromatography system (Bio-Rad Laboratories, Inc.) connected with Shodex IEC SP-825 column, followed by gradient elution from a 25 mM acetate buffer (pH 4.5) to a 25 mM acetate buffer (pH 4.5) containing 1 M NaCl. The protein elution was monitored on the basis of absorbance at 215 nm. On the basis of the obtained chromatogram, the percentage of each peak was calculated.

4D5-Fc antibody = settings: PE-labeled streptavidin; dead cells excluded by 7-AAD
human IgG [3] = target: human IgG (Homo sapiens, UniProt P01861); assay: Labeling of various IgG, SDS-PAGE and Western blot with HRP-labeled streptavidin (Example 13); settings: human IgG4; antibody:peptide 1:4; 30 minutes
human IgG [4] = target: T1, human IgG; assay: as above; settings: human monoclonal IgG1; antibody:peptide 1:4; 30 minutes
human IgG [5] = target: human IgG (Homo sapiens, UniProt P01859); assay: as above; settings: human IgG2; antibody:peptide 1:4; 30 minutes
[6] = target: T3, rabbit IgG (polyclonal antibody) (Oryctolagus cuniculus, UniProt P01870); assay: as above; type: binding; settings: antibody:peptide 1:4; 30 minutes
T3 construct: purchased Thermo Fisher Scientific Inc

SK-BR3 cells [7] = settings: peptide plus SA-PE label only
[8] = system: hIgA, bovine gelatin, or BSA; assay: ELISA of reaction between labeled IgG-binding peptide and other plate proteins (Example 4); settings: excess of labeled peptide reagent
Experimental: A 0.1 M NaHCO3 solution containing each protein (IgG (Chugai Pharmaceutical Co., Ltd.), IgA (Athens Research & Technology, Inc.), or bovine gelatin (Wako Pure Chemical Industries, Ltd.)) (50 ng (0.33 pmol)/μl/well) was added to wells of a 96-well microplate (Nunc® MaxiSorp), and the plate was left overnight at room temperature to adsorb each protein onto the surface of the plate. […] After a lapse of 1 hour, the reaction was terminated by the addition of 1 M Tris-HCl (pH 7.0) at 3 μL/well. SA-HRP (Vector Laboratories, Inc.) diluted 2000-fold with 0.5% BSA was added thereto at 50 μL/well and reacted at room temperature for 1 hour. Then, the plate was washed five times with 0.1% PBST. Then, a TMB solution (Wako Pure Chemical Industries, Ltd.) was used in the color development of HRP. After 5-minute chromogenic reaction, the absorbance at 450 nm was measured using an ELISA plate reader (model 680 microplate reader (Bio-Rad Laboratories, Inc.)).

hIgG = target: T4, hIgG (Homo sapiens, UniProt P01857); assay: ELISA of reaction between labeled IgG-binding peptide and plate-adsorbed IgG (Example 4)
T4 construct: purchased Chugai Pharmaceutical Co., Ltd

Sequence of human IgG (Homo sapiens, UniProt P01861) (P01861 1-327 isoform P01861-1): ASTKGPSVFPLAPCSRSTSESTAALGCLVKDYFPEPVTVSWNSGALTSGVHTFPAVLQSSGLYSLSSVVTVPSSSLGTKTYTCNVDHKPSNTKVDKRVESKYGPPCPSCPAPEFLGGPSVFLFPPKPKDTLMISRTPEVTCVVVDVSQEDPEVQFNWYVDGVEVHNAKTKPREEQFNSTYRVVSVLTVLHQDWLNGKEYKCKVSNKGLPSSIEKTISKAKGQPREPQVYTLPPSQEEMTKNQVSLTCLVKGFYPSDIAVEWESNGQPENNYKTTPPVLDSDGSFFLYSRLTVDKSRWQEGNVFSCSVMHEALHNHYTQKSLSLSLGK
T3 sequence (P01870 whole entry): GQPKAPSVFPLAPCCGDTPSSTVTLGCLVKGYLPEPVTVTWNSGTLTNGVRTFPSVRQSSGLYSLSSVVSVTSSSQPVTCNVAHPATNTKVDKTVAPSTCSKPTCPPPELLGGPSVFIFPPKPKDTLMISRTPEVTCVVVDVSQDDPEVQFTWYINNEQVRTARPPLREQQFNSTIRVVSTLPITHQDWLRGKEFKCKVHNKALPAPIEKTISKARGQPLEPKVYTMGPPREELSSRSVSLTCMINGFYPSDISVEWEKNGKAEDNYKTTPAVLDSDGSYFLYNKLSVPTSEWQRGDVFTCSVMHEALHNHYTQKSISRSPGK
Sequence of human IgG (Homo sapiens, UniProt P01859) (P01859 1-326 isoform P01859-1): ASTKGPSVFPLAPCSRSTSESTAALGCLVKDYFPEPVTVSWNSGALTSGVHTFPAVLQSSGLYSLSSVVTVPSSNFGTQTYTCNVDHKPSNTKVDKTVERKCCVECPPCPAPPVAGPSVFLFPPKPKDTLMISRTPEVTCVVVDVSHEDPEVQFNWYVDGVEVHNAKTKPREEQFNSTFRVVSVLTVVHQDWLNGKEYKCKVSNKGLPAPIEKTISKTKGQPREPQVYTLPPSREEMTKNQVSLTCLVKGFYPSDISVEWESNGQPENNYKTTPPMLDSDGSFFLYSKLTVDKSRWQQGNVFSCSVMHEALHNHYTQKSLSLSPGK

Compound: CC(C)C[C@@H]1NC(=O)[C@H](CCC(=O)O)NC(=O)CNC(=O)[C@H](CCCNC(=N)N)NC(=O)[C@H](Cc2c[nH]cn2)NC(=O)[C@H](Cc2ccc(O)cc2)NC(=O)[C@H](C)NC(=O)[C@@H](NC(=O)[C@H](CC(=O)O)NC(=O)[C@@H]2CCCN2C(=O)CNC(=O)CCOCCOCCOCCOCCOCCNC(=O)CCCC[C@@H]2SC[C@@H]3NC(=O)N[C@@H]32)CSSC[C@@H](C(=O)N[C@H](C(=O)N[C@@H](Cc2ccccc2)C(=O)N[C@@H](Cc2c[nH]cn2)C(N)=O)[C@@H](C)O)NC(=O)[C@H](Cc2c[nH]c3ccccc23)NC(=O)[C@H](C(C)C)NC1=O [Type I] ({Biotin-PEG5}-GPDCAYHRGELVWCTFH-NH2; disulfide 4-14)
ka (human IgG [1]): 1.57E+06
kd (human IgG [1]): 0.0144

Compound: CC[C@H](C)[C@@H]([C@@H](CC(=O)N1CCC[C@H]1[C@H](OC)[C@@H](C)C(=O)N[C@H](C)[C@@H](O)c1ccccc1)OC)N(C)C(=O)[C@@H](NC(=O)[C@H](C(C)C)N(C)C(=O)OCc1ccc(NC(=O)[C@H](CCCNC(N)=O)NC(=O)[C@@H](NC(=O)CCCCCN2C(=O)C=CC2=O)C(C)C)cc1)C(C)C [VcMMAE, maleimidocaproyl-valine-citrulline-p-aminobenzoyloxycarbonyl-monomethyl auristatin E] ({Hexanoyl(6-maleimido)}-V[Cit][PABC][NMeV]V[Dil][Dolaproine]-X1)
concentration giving cell growth inhibition (SK-BR3 cells [2]): ≥ 250 nM

Compound: Biotin-PEG4-RGNCAYHXGQLVWCTYH-NH2 [DSG-modified IgG-binding peptide]
Fc with a larger number of peptides than two added (human IgG Fc; excessive molar ratio 1:5, pH 4.5): not detected
unreacted form (peak 2) produced (human IgG Fc; molar ratio 1:1, pH 4.5, room temperature): ≤ 20%
unreacted form (peak 2) produced (human IgG Fc; molar ratio 1:2, pH 4.5, room temperature): ≤ 10%
yield of the adduct of two peptides (peak 4) (human IgG Fc; other pH cases (pH 5.5, pH 7.0), molar ratio 1.0): 35-40%
part of the reaction completed within 1 minute (human IgG Fc; pH 4.0, pH 5.5 and pH 7.0, molar ratio 1.0, room temperature): ≥ 90%
amount of the unreacted form remaining (human IgG Fc; pH 4.0, molar ratio 1.0): exceeded 40%
yield of the adduct of two peptides (peak 4) (human IgG Fc; pH 4.0, molar ratio 1.0): approximately 15%
yield of the unreacted form (human IgG Fc; pH 5.5 and 7.0, molar ratio 1.0): ~10%
fluorescence intensity compared with biotinylated anti-human IgG mouse antibody (4D5-Fc antibody): rarely differed in fluorescence intensity
labeling of human IgG4 (band in Western blot) (human IgG [3]): dark bands
labeling of human IgG1 (band in Western blot) (human IgG [4]): dark bands
labeling of human IgG2 (band in Western blot) (human IgG [5]): dark bands
labeling of rabbit polyclonal IgG (staining in Western blot) [6]: strongly stained
shift in fluorescence intensity without 4D5-Fc (SK-BR3 cells [7]): no shift in fluorescence intensity

binding to other proteins [8]: not detected
reaction time at which saturation was seen (hIgG; IgG and peptide at molar ratio 1:2): approximately 15 minutes
molar ratio at which saturation was seen (hIgG; molar ratios 1 to 10, 1 hour): approximately 5
Compound: labeled IgG-binding peptide modified with DSS: biotinylated IgG-binding (R8K) peptide modified with cross-linking agent, prepared as in Example 2 (GDDCAYHK(DSS)GELVWCTFH-NH2; not fully specified (N-terminus); cysteine pairing not given here; also: biotinylated)
